Holding throughout (experiment): XTT assay (cell metabolism/cytotoxicity)
Type in all cases: cell-based, human
Background: Tetrazolium dyes change colour on reduction, which living cells bring about.

One assay relates to Daoy cells. Particulars: for IC50: Homo sapiens, Daoy. From the text:
(§1) To evaluate the efficacy of this compound in MB cells, we first determined the relative IC50 values for each cell line using XTT assays (Figure 3A–E). The XTT assay is used to measure cellular metabolic activity (overall activity of mitochondrial dehydrogenases) as an indicator of cell viability, proliferation, and cytotoxicity. […] Overall, IC50 values for all cell lines were in the micromolar range, making C29 a very efficient agent to inhibit cell metabolism and viability.
(§2) Figure 3 A new pharmacological inhibitor of CXCR1/2, C29, inhibits the metabolism of MB cells. (A–D). Cytotoxic effect induced by C29 on Daoy (A), ONS-76 (B), HD-MB03 (C), and D341Med (D) cells. Cells were treated with increasing doses of the inhibitor for 24, 48, and 72 h. Cytotoxicity was measured using the XTT assay. Absorbance measurements were performed at […], n = 3. (E) Table with the different IC50 values for all conditions. (F) Cell death after 48 h of treatment with control (DMSO, CT) or C29 1, 2.5 or 5 µM treatment, on MB cells, and normal cells (N), n = 3. Statistics were performed using the one-way method ANOVA. ** p < 0.01, *** p < 0.001. For this figure, Daoy = Da, ONS-76 = O, HD-MB03 = HD, D341 = D3, C8D1A = C8. TEXT PRINTED IN THE PICTURE: (E) C29: IC50 (μM): 5.6 (Cell line: Daoy; 24h); IC50 (μM): 3 (Cell line: Daoy; 48h); IC50 (μM): 0.9 (Cell line: Daoy; 72h); IC50 (μM): 17.9 (Cell line: ONS-76; 24h); IC50 (μM): 6.8 (Cell line: ONS-76; 48h); IC50 (μM): 2.1 (Cell line: ONS-76; 72h); IC50 (μM): 2.6 (Cell line: HD-MB03; 24h); IC50 (μM): 1.8 (Cell line: HD-MB03; 48h); IC50 (μM): 1.3 (Cell line: HD-MB03; 72h); IC50 (μM): 7.5 (Cell line: D341Med; 24h); IC50 (μM): 4.9 (Cell line: D341Med; 48h); IC50 (μM): 4.6 (Cell line: D341Med; 72h)
(§3) centrations of C29 in 96‐well plates for 48h. 50μl/well of XTT solution (Cell Proliferation
(§4) kit II, Sigma‐Aldrich) were added to measure cell metabolism at 490 nm with GloMax‐ […]
(§5) 30 μg of proteins were separated on 10% SDS‐polyacrylamide
(§6) gels and transferred on PVDF membranes in Tris‐Glycine buffer (25 mM Tris, 192 mM
(§7) glycine, pH 8∙3) + 20% ethanol (v:v). Membranes were blocked with 3% BSA, at room tem‐
(§8) perature for 1 h, then immunoblotted overnight with primary antibodies diluted in 3%
(§9) BSA, at 4 °C. The following primary antibodies were used: AKT (CST, #9272S), phospho‐
(§10) ARD1 (homemade polyclonal rabbit antibody). Membranes were incubated with HRP‐
(§11) conjugated secondary antibodies anti‐rabbit IgG 1/5000e (Promega), at room temperature,
(§12) for 1h30. After washing, the Advansta WesternBright Quantum HRP substrate (Diagom‐
(§13) ics, Blagnac, France) was used as detection reagent.

The subject of the next assay is HD-MB03 cells. The note with it: for IC50: Homo sapiens.
Description: as §1, §2, §3, §4, §5, §6, §7, §8, §9, §10, §11, §12, §13

A further assay concerns D341Med cells. Particulars: for IC50: Homo sapiens, D341 Med.
Description: as §1, §2, §3, §4, §5, §6, §7, §8, §9, §10, §11, §12, §13

A further assay concerns ONS-76 cells. The note with it: for IC50: Homo sapiens.
Description: as §1, §2, §3, §4, §5, §6, §7, §8, §9, §10, §11, §12, §13

In the case of `O=C(Nc1cccc(Cl)c1)Nc1nc2ccc([N+](=O)[O-])cc2s1` [C29, 1-(3-chlorophenyl)-3-(6-nitrobenzo[d]thiazol-2-yl) urea], the IC50 (commonly the concentration at which inhibition is half-maximal) is 5.6 µM with Daoy cells (24 h); 3 µM in the assay on Daoy cells (48 h); 0.9 µM in the assay on Daoy cells (72 h); 2.6 µM in the assay with HD-MB03 cells (HD-MB03, 24 h); 1.8 µM in the assay on HD-MB03 cells (HD-MB03, 48 h); 1.3 µM in the assay with HD-MB03 cells (HD-MB03, 72 h). In addition, the half-inhibitory concentration (IC50) in the assay on D341Med cells (D341Med, 24 h) amounted to 7.5 µM; with D341Med cells (D341Med, 48 h), 4.9 µM; with D341Med cells (D341Med, 72 h) it was 4.6 µM; in the assay with ONS-76 cells (ONS-76, 24 h), 17.9 µM; with ONS-76 cells (ONS-76, 48 h), 6.8 µM; in the assay on ONS-76 cells (ONS-76, 72 h), 2.1 µM. In addition, the “Selectivity index (SI)” value came out at 6.44 in the assay with Daoy cells (IC50 normal cells (C8D1A) / IC50 Daoy), 10.7 in the assay on HD-MB03 cells (IC50 normal cells (C8D1A) / IC50 HD-MB03), 3.94 in the assay on D341Med cells (IC50 normal cells (C8D1A) / IC50 D341Med) and 2.84 in the assay with ONS-76 cells (IC50 normal cells (C8D1A) / IC50 ONS-76). Moreover, in the assay with D341Med cells (D341Med, 72 h, 0.1 to 2.5 µM), the “Effect on cell metabolism at low concentrations” value was “stimulated metabolism”.

The values above are taken from article PMC9738107, “Targeting of the ELR+CXCL/CXCR1/2 Pathway Is a Relevant Strategy for the Treatment of Paediatric Medulloblastomas” (Cells, 2022).
